Experimental data from patent US7772228B2, “Method for treatment of bacterial infections with once or twice-weekly administered rifalazil” (priority 1998, dated 2010).
Values after ≈ are worked out from the molar mass of the structure shown. Like-named read-outs stand apart in the source and are kept apart here.

Assays:
M. avium = conditions: 18 strains, agar dilution; cited from earlier work
M. intracellulare = conditions: 31 strains, agar dilution; cited from earlier work
clinical [1] = conditions: human, in vivo
Text: Attempts were made to analyze the multiple-dose pharmacokinetics using a linear 3-compartment model, and a 3-compartment model incorporating enzyme induction. However, neither multi-compartmental model accurately characterized the pharmacokinetic parameters in all subjects. Daily dosing and related early terminations due to adverse reactions, differences in bioavailability from a food effect, and nonconnective dose administration further complicated these analyses. Therefore, only noncompartmental pharmacokinetic parameters were derived for clinical trials 003 and 004. For the 004 clinical trial, the pharmacokinetic analysis of this multiple-dose study was limited to a comparison of the noncompartmental parameters obtained from the first dose (Day 1) data versus the fourth (last) dose (Day 22). Because of extensive sampling after the fourth dose, this study yielded the most complete data about terminal elimination of rifalazil given in a multiple-dose regimen.

[2] = test system: extracellular M. tuberculosis; conditions: cited from earlier work
M. tuberculosis = conditions: cited from earlier work
clinical [3] = conditions: human, in vivo; remark: listed apart in the source
Text: Pharmacokinetic analyses associated with clinical trials involved measurement of concentrations of rifalazil in plasma and/or whole blood of subjects participating in the four Phase 1 studies using high performance liquid chromatography.
Attempts were made to analyze the multiple-dose pharmacokinetics using a linear 3-compartment model, and a 3-compartment model incorporating enzyme induction. However, neither multi-compartmental model accurately characterized the pharmacokinetic parameters in all subjects. Daily dosing and related early terminations due to adverse reactions, differences in bioavailability from a food effect, and nonconnective dose administration further complicated these analyses. Therefore, only noncompartmental pharmacokinetic parameters were derived for clinical trials 003 and 004.

[4] = Half-life distribution t½ (mean)
[5] = Ref. 7, 7H11 agar, 22 strains (rif^r and rif^s)

## CO[C@H]1/C=C/O[C@@]2(C)Oc3c(C)c(O)c4c(=O)c(c5oc6cc(N7CCN(CC(C)C)CC7)cc(O)c6nc-5c4c3C2=O)NC(=O)/C(C)=C\C=C\[C@H](C)[C@H](O)[C@@H](C)[C@@H](O)[C@@H](C)[C@H](OC(C)=O)[C@@H]1C [Rifalazil, 3′-hydroxy-5′-(4-isobutyl-1-piperazinyl)benzoxasinorifamycin]
M. avium
  MIC90: 1.56 µg/mL (≈ 1.66 µM)
M. intracellulare
  MIC90: 0.1 µg/mL (≈ 0.106 µM)
Clinical [1]; 25 mg
  increase of AUC(0-24) on Day 22 relative to Day 1: approximately 17%
Clinical [1]; 25 mg, apparent terminal half-life, range
  half-life: 29.5 to 107 h
Clinical [1]; 50 mg
  increase of AUC(0-24) on Day 22 relative to Day 1: ~27%
Clinical [1]; 50 mg, apparent terminal half-life, range
  half-life: 65.9 to 148 h
Clinical [1]; [4]
  half-life: 10.5 h
Clinical [1]; Half-life elimination t½ (mean)
  half-life: ~61 h
Clinical [1]; Tmax (mean)
  Tmax: 5.7 h
[2]; strain Atencio
  MBC: 0.008 µg/mL (≈ 0.0085 µM)
  MIC: 0.001 µg/mL (≈ 0.00106 µM)
[2]; strain Erdman
  MBC: 0.004 µg/mL (≈ 0.00425 µM)
  MIC: 0.002 µg/mL (≈ 0.00213 µM)
[2]; strain H37Rv
  MBC: 0.031 µg/mL (≈ 0.0329 µM)
  MIC: 0.008 µg/mL (≈ 0.0085 µM)
M. tuberculosis; 22 strains, agar dilution
  MIC90: 12.5 µg/mL (≈ 13.3 µM)
M. tuberculosis; [5]
  MIC90: 12.5 µg/mL (≈ 13.3 µM)
  MIC Range: ≦0.0125 to 12.5^ μg/mL
M. tuberculosis; Ref. 8, 7H11 agar, 16 strains (rif^s)
  MIC90: ≦0.0125 μg/mL
Clinical [3]
  Half-life distribution t½ (mean): 17.26 h
Clinical [3]; [4]
  half-life: 10.1 h
Clinical [3]; Tmax (mean)
  Tmax: 5.25 h
